Data as given in patent US10947205B2, “Oxazolidinone compounds and methods of use thereof as antibacterial agents” (priority 2015, dated 2021).
Values after ≈ are worked out from the molar mass of the structure shown. Read-outs that look alike come from different tables or passages of the source.

Key:
[1] = system: mitochondrial protein synthesis in HepG2 cells (COX-I / SDH-A); experiment: Mitochondrial protein synthesis assay; assay type: cell-based; settings: Homo sapiens, read-out: MPS IC50_μM
Procedure: (§1) Inhibition of mitochondrial protein synthesis was assessed in HepG2 cells by comparing the levels of two subunits of oxidative phosphorylation enzyme complexes, subunit I of Complex IV (COX-I) and the 70 kDa subunit of Complex II (SDH-A). COX-I is mitochondrial DNA encoded and SDH-A is nuclear DNA encoded. HepG2 cells were seeded in 96-well collagen coated plates at 8,000 cells per well and exposed to 2-fold serial dilutions of compounds from 100 LM to 6.25 μM. Microtiter plates were incubated for approximately 5 replication cycles (4 days) prior to assessment of protein levels using a kit as described by the manufacturer (ab 110217 MitoBiogenesis In Cell ELISA Kit, Abcam, Cambridge, Mass.). Inhibition of mitochondrial protein synthesis was expressed as a ratio of COX-1 to SDH-A levels.
as §1, with “μM” for “LM”

[2] = system: Staphylococcus aureus (methicillin resistant, MB5393, COL); experiment: microbe, parasite or virus in culture; assay type: cell-based; settings: MRSA, 22 h, read-out: MRSA COL MITC95 μM
Procedure: Inhibition of Staphylococcus aureus (methicillin resistant, MB5393, COL) growth was assessed in cation adjusted Mueller Hinton II broth (CAMHB) in 384-well microtiter plates. Bacteria were dispensed into microtiter plates at approximately 5×10^5 actively growing cells in 49 μL volumes per well. Cells were exposed to 2-fold serial dilutions of compounds from 200 μM to 0.195 μM and growth compared to drug-free control. Compound dilutions were prepared in 100% dimethylsulfoxide and added to microtiter plates in 1 μL volumes per well. Full growth control wells contained dimethylsufoxide and bacteria. No growth control wells contained dimethysulfoxide and CAMHB but no bacteria. Growth inhibition was assessed after a 22-hour growth period by measuring optical density using a spectrophotometer. The lowest concentration of test compound required to inhibit 95% of the growth of the bacteria was defined as the MITC95. All studies were done in a BSL2 facility.

[3] = system: Mycobacterium tuberculosis (Mtb); experiment: microbe, parasite or virus in culture; assay type: cell-based, Mycobacterium tuberculosis H37Rv (Mtb-GFP); settings: 168 h
[4] = 96 h, HepG2 cells, 4 days, ratio of COX-1 to SDH-A levels
[5] = pH 6.8, read-out: Mtb Cho MITC95_μM
[6] = pH 6.8, read-out: Mtb Glu MITC95_μM

SMILES | IC50 [1, 4] [µM] | MIC [2] [µM] | MIC [3, 5] [µM] | MIC [3, 6] [µM] | IC50 ([1]; HepG2, 96 h) [µM]
CSc1ccc(-c2ccc(N3C[C@H](COc4ccon4)OC3=O)cc2F)cc1 [Example 49, (R)-3-(2-fluoro-4′-(methylthio)-[1,1′-biphenyl]-4-yl)-5-((isoxazol-3-yloxy)methyl)oxazolidin-2-one] | > 20 | 200 (≈ 80.1 µg/mL) | 0.58 (≈ 0.232 µg/mL) | 0.58 (≈ 0.232 µg/mL) | –
CSc1ccc(-c2ccc(N3C[C@H](Cn4occc4=O)OC3=O)cc2F)cc1 [Example 50, (R)-2-((3-(2-fluoro-4′-(methylthio)-[1,1′-biphenyl]-4-yl)-2-oxooxazolidin-5-yl)methyl)isoxazol-3(2H)-one] | > 20 | 200 (≈ 80.1 µg/mL) | 0.58 (≈ 0.232 µg/mL) | 0.29 (≈ 0.116 µg/mL) | –
O=C1O[C@@H](Cn2ccnn2)CN1c1ccc(-c2ccc(N3CCNCC3)nc2)c(F)c1 [Example 54, (R)-5-((1H-1,2,3-triazol-1-yl)methyl)-3-(3-fluoro-4-(6-(piperazin-1-yl)pyridin-3-yl)phenyl)oxazolidin-2-one] | > 20 | 2.34 (≈ 0.991 µg/mL) | 0.215 (≈ 0.091 µg/mL) | 0.24 (≈ 0.102 µg/mL) | –
NCc1ccc(F)c(-c2ccc(N3C[C@H](Cn4ccnn4)OC3=O)cc2F)c1 [Example 55, (5R)-3-[5′-(aminomethyl)-2,2′-difluorobiphenyl-4-yl]-5-(1H-1,2,3-triazol-1-ylmethyl)-1,3-oxazolidin-2-one] | > 20 | 50 (≈ 19.3 µg/mL) | 0.19 (≈ 0.0732 µg/mL) | 0.19 (≈ 0.0732 µg/mL) | –
NC[C@H]1CN(c2ccc(-c3cccs3)c(F)c2)C(=O)O1 [Example 56, (S)-5-(aminomethyl)-3-(3-fluoro-4-(thiophen-2-yl)phenyl)oxazolidin-2-one] | > 20 | 100 (≈ 29.2 µg/mL) | 0.39 (≈ 0.114 µg/mL) | 0.39 (≈ 0.114 µg/mL) | –
NCC(=O)NC[C@H]1CN(c2ccc(-c3ccc(C(N)=O)cc3)c(F)c2)C(=O)O1 [Example 57, (S)-4′-(5-((2-aminoacetamido)methyl)-2-oxooxazolidin-3-yl)-2′-fluoro-[1,1′-biphenyl]-4-carboxamide] | 50 | 25 (≈ 9.66 µg/mL) | 0.535 (≈ 0.207 µg/mL) | 0.29 (≈ 0.112 µg/mL) | –
CCNC(=O)NC[C@H]1CN(c2ccc(-c3ccc(SC)cc3)c(F)c2)C(=O)O1 [Example 58, (S)-1-ethyl-3-((3-(2-fluoro-4′-(methylthio)-[1,1′-biphenyl]-4-yl)-2-oxooxazolidin-5-yl)methyl)urea] | – | 200 (≈ 80.7 µg/mL) | 0.19 (≈ 0.0767 µg/mL) | 0.58 (≈ 0.234 µg/mL) | > 20
NC[C@H]1CN(c2cc(F)c(N3CCOCC3)c(F)c2)C(=O)O1 [Example 59, (S)-5-(aminomethyl)-3-(3,5-difluoro-4-morpholinophenyl)oxazolidin-2-one] | > 20 | 200 (≈ 62.7 µg/mL) | 0.39 (≈ 0.122 µg/mL) | 0.09 (≈ 0.0282 µg/mL) | –
COC(=O)NC[C@H]1CN(c2ccc(-c3ccc(SC)cc3)c(F)c2)C(=O)O1 [Example 62, (S)-methyl ((3-(2-fluoro-4′-(methylthio)-[1,1′-biphenyl]-4-yl)-2-oxooxazolidin-5-yl)methyl)carbamate] | 10 | 200 (≈ 78.1 µg/mL) | 0.04 (≈ 0.0156 µg/mL) | 0.04 (≈ 0.0156 µg/mL) | –
CCOC(=O)NC[C@H]1CN(c2ccc(-c3ccc(SC)cc3)c(F)c2)C(=O)O1 [Example 63, ethyl ({(5S)-3-[2-fluoro-4′-(methylsulfanyl)biphenyl-4-yl]-2-oxo-1,3-oxazolidin-5-yl}methyl)carbamate] | 18 | 200 (≈ 80.9 µg/mL) | 0.19 (≈ 0.0768 µg/mL) | 0.29 (≈ 0.117 µg/mL) | –
CS(=N)(=O)c1ccc(-c2ccc(N3C[C@H](Cn4ccnn4)OC3=O)cc2F)cc1 (stereo partly drawn) [Example 64, (5R)-5-((1H-1,2,3-triazol-1-yl)methyl)-3-(2-fluoro-4′-(S-methylsulfonimidoyl)-[1,1′-biphenyl]-4-yl)oxazolidin-2-one] | > 20 | 0.39 (≈ 0.162 µg/mL) | 0.09 (≈ 0.0374 µg/mL) | 0.09 (≈ 0.0374 µg/mL) | –
CC(=O)NC[C@H]1CN(c2ccc(N3CCOCC3)c(F)c2)C(=O)O1 [linezolid, reference compound] | 8 | 6.25 (≈ 2.11 µg/mL) | 3.14 (≈ 1.06 µg/mL) | 4.58 (≈ 1.55 µg/mL) | –
